# Patent publication US6599931B1, “Test system for characterizing the compatibility of bioactive substances and polyvinylpyrrolidone” (Abbott GmbH & Co. KG, priority 1998, dated 2003)
# Experiments:
# [1] = Dissolving and recrystallization behavior of active ingredient in 1,3-bis(1-pyrrolidonyl)butane (DHVP) test system; settings: for RT: solution in DHVP: room temperature; for Sol. at (temperature at which solution forms): heated; for solubility in DHVP: comparison
# From the text: The ratios of the amounts can in principle be chosen without restriction and naturally depend essentially on the properties of the active ingredient. However, it is advisable to choose the concentration ranges in the test system so that they correspond to active ingredient contents typical of extruded forms, that is to say generally from 0.1 to 70, preferably 10 to 30% by weight of active ingredient, based on the total weight of the test system. However, it is also possible in the individual case to prepare solutions or dispersions with a concentration of 60% by weight or even higher. It is preferred to carry out test series with increasing active ingredient contents. The active ingredient(s) are weighed out, mixed with the appropriate amounts of DHVP and preferably stirred, normally with a typical laboratory magnetic stirrer at 5 to 200 rpm. […] The heating is preferably carried out so as to correspond approximately to the heating rate in a subsequent melt formulation, that is to say at 0.5 to 5° C./min. The test system is preferably heated to a maximum of 140° C. However, it is also possible in the individual case to heat to the boiling point of DHVP. The test system is then allowed to cool to room temperature.
# The prepared test systems are assessed spectroscopically. […] The recrystallization behavior is also assessed. The recrystallization behavior immediately after cooling to room temperature is an important criterion especially for test systems in which the active ingredient has been induced to dissolve by heating.
# leaving to stand at room temperature for 24 hours
# Investigation is always of whether the active ingredient has recrystallized out of the solution.
# [2] = Melt extrudate with PVP K 30: formation of solid solution; assay type: physicochemical; settings: for Extrudate: solution (solid): 30% by weight in PVP, melt extrudate with PVP K 30; for solid solution with PVP: comparison
# [3] = Solubility in DMSO (comparison)
SMILES,Recryst. (recrystallization) ([1]; 10% by weight in DHVP),RT: solution in DHVP ([1]; 10% by weight in DHVP),Recryst. after (time to recrystallization) ([1]; 30% by weight in DHVP) [h],Sol. at (temperature at which solution forms) ([1]; 30% by weight in DHVP),RT: solution in DHVP ([1]; 30% by weight in DHVP),Extrudate: solution (solid) [2],Sol. at (temperature at which solution forms) ([1]; 10% by weight in DHVP),solubility in DMSO (dimethyl sulfoxide) [3],Recryst. (recrystallization) ([1]; 30% by weight in DHVP),solubility in DHVP [1],solid solution with PVP [2]
CCS(=O)(=O)Oc1ccc2c(C)c(C)c(=O)oc2c1 [Esuprone],Recryst.: −,RT: +,20,Sol. at 70 °C,RT: −,+,,,,,
COc1ccc(CCN(C)CCCC(C#N)(c2cc(OC)c(OC)c(OC)c2)C(C)C)cc1OC.Cl (stereo not shown) [Gallopamil HCl],Recryst.: −,RT: +,96,Sol. at 60 °C,RT: −,+,Sol. at 60 °C,,,,
CC(C)Cc1ccc(C(C)C(=O)O)cc1 (stereo not shown) [Ibuprofen],Recryst.: −,RT: +,,,RT: +,+,,soluble,Recryst.: −,soluble,solid solution
CC(=O)Nc1ccc(O)cc1 [Paracetamol],Recryst.: −,RT: −,,Sol. at 90 °C,RT: −,+,Sol. at 90 °C,,Recryst.: −,,
Cn1c(=O)c2[nH]cnc2n(C)c1=O [Theophylline],,,,,,,,soluble,,insoluble,no solid solution
CN(C)CCOC1=Cc2ccccc2Sc2ccc(Cl)cc21 [Zotepine],Recryst.: −,RT: +,40,Sol. at 70 °C,RT: −,+,,,,,
